assay: Henry solubility constant Hcp at 293 K (mol/(m3 Pa)); details: reference: Tremp et al. (1993)

| SMILES | Henry solubility constant Hcp at 293 K |
| --- | --- |
| Cc1ccccc1O [1-hydroxy-2-methylbenzene] | 7.1 |
| Cc1ccc(O)cc1 [1-hydroxy-4-methylbenzene] | 13 |
| O=[N+]([O-])c1ccc(O)c([N+](=O)[O-])c1 [2,4-dinitrophenol] | 110 |
| O=[N+]([O-])c1ccccc1O [2-nitrophenol] | 0.77 |
| Cc1cc(O)ccc1[N+](=O)[O-] [3-methyl-4-nitrophenol] | 620 |
| CCC(C)c1ccc(O)c([N+](=O)[O-])c1 (configuration not stated) [4-(1-methylpropyl)-2-nitrophenol] | 0.1 |
| COc1ccc(O)c([N+](=O)[O-])c1 [4-methoxy-2-nitrophenol] | 5.3 |
| Cc1ccc(O)c([N+](=O)[O-])c1 [4-methyl-2-nitrophenol] | 0.67 |
| O=[N+]([O-])c1ccc(O)cc1 [4-nitrophenol] | 770 |
| O=[N+]([O-])c1ccc(F)cc1O [5-fluoro-2-nitrophenol] | 0.5 |
| Cc1ccc([N+](=O)[O-])c(O)c1 [5-methyl-2-nitrophenol] | 0.77 |
| Cc1cccc([N+](=O)[O-])c1O [6-methyl-2-nitrophenol] | 0.29 |

— Sander's compilation of Henry's law constants (doi:10.1007/bf00479396)
